We go through ten molecules from patent publication US5965434A, “Amphipathic PH sensitive compounds and delivery systems for delivering biologically active compounds” (priority 1994, dated 1999).

The conditions of series [1]: background; cited from earlier work.
Series [2] is described as follows: pK by differential titration. Particulars: 0.5% triton x-100. The protocol: 4-5 μmoles of compounds 1, 4, 5, 6 or 8 in a chloroform solution were dried in separate 1.5 ml microcentrifuge tubes under a vacuum overnight. The dried compounds were dissolved in […] of a 0.5% water solution of Triton X-100, pH 3.5. A 20 mM NaOH solution was added to each tube using a Dilutor 401 (Gilson Co.) and the pH was monitored using a Beckman .phi. 72 pH meter. The pKa's of the compounds were determined from differential titration curves. The transfections of the 3T3 cells were done with liposome preparations containing Dioleoylphosphatidylcholine as described above.

The next series relates to 3T3 cells. Kind of series: Transfection of plasmid pBS.RSVLux into 3T3 cells, luciferase activity. It is filed as cell-based, mouse. The note with it: Table 13.
The conditions of series [3]: background; cited from earlier work. The source holds these as a separate data set.
The mark [4] stands for this setting: Dioleoylphosphatidylcholine content 1:1.

Protocol for 3T3 cells: Liposomes were prepared by mixing chloroform solutions of the different lipids in microcentrifuge tubes with a 1.5 ml and removing the chloroform by vacuum to produce the dried lipid films. Tubes were placed under vacuum overnight to remove solvent traces. The amounts of cationic lipids in all cases were 1.34 mmol/ml with different amounts of other lipids as specified. One ml of sterile 10 mM HEPES buffer, pH 7.8, was added, and the tubes were sealed and vortexed for 1 min at room temperature and sonicated to obtain a clear emulsion.
The following cell lines were used: mouse 3T3 fibroblasts, COS cells (monkey kidney cell line transformed with the SV40 T ag), HeLa (human carcinoma cells), HepG2 (human hepatoma cell), 293 (monkey kidney cell line transformed with the adenovirus E1 gene ) were maintained in Dulbeco's Modified MEM media supplemented with 10% fetal calf serum. All cultures were maintained in a humidified atmosphere of 5% CO2 in air at 37° C. The cells were seeded in a 6-well plate (35 mm culture dishes) or a 12 well-plate (25 mm culture dishes) 24 h before the transfection at 70% confluence. Before transfection, the cells was washed once with Opti-MEM. In case of the 35 mm culture dishes, four μg of plasmid DNA (containing the luciferase or β-galactosidase reporter genes described below) in 0.75 ml of Opti-MEM was mixed with various amounts of liposomes in 0.75 ml of Opti-MEM. In case of the 25 mm culture dishes, one or two μg DNA in 400 μl of Opti-MEM was mixed with 400 μl of liposomes in 400 μl of Opti-MEM. The mixtures were incubated for 30 min at room temperature prior to being added to the cells in the culture dish. […]
The firefly luciferase and E. coli β-galactosidase reporter genes were used to determine the efficiency of DNA transfer quantitatively. […]
For determination of luciferase activity, cells were lysed by the addition of 100 ml for 25 mm plates and 200 μl for 35 mm plates of lysis buffer (0.1% Triton X-100, 0.1M K-phosphate, 1 mM DTT, pH 7.8). 20 μl of the cellular extract were analyzed for luciferase activity. […]

Regarding `CCCCCCCCCCCCCCCC[N+](C)(C)C.[Br-]` [CTAB, cetyltrimethylammonium bromide], in series [1], the Cytotoxicity entry is given as “significant cytotoxicity”.

As for `CC(C)CCC[C@@H](C)[C@H]1CC[C@H]2[C@@H]3CC=C4C[C@@H](OC(=O)CCC[N+](C)(C)C)CC[C@]4(C)[C@H]3CC[C@]12C` [ChoTB, cholesteryl (4'-trimethylammonio)butanoate], the Cytotoxicity result in series [1] is given as “no evidence of reduced cytotoxicity”.

Take `CCCCCCCCCCCCCCCC(=O)OCC(CSc1nccn1C)OC(=O)CCCCCCCCCCCCCCC` (centres unmarked) [Compound 4]: the pKa (as a rule, the pH at which an ionisable group is half protonated) in series [2] is less than 3.5.

Take `CC(C)CCC[C@@H](C)[C@H]1CC[C@H]2[C@@H]3CC=C4C[C@@H](SSCCN)CC[C@]4(C)[C@H]3CC[C@]12C` [Compound 5]: the “Relative Transfection Efficiency (Lipofectin = 1.0)” value (shortened to “Relative Transfection Efficiency”) in the series on 3T3 cells (Dioleoylphosphatidylcholine content 1:2) turned out to be 0.84. This molecule came in with a pKa in series [2] of 6.8.

In the case of `CC(C)CCC[C@@H](C)[C@H]1CC[C@H]2[C@@H]3CC=C4C[C@@H](OC(=O)NCCCn5ccnc5)CC[C@]4(C)[C@H]3CC[C@]12C` [Compound 6], the “Relative Transfection Efficiency” value with 3T3 cells (setting [4]) was found to be 0.23. The pKa in series [2] was determined as 6.

As for `CCCCCCCCCCCCCCCC(=O)OCC(CNc1ccncc1)OC(=O)CCCCCCCCCCCCCCC` (centres unmarked) [Compound 8], the “Relative Transfection Efficiency” value in the series on 3T3 cells (setting [4]) was found to be 7.68. In addition, in series [2], the pKa was found to be 5.3.

Take `CCCCCCCC/C=C\CCCCCCCC(=O)OC[C@H](COC(=O)CCC(=O)OCC[N+](C)(C)C)OC(=O)CCCCCCC/C=C\CCCCCCCC` [DOSC, 1,2-dioleoyl-3-succinyl-sn-glycerol choline ester]: in series [1], the Cytotoxicity result is recorded as “no evidence of reduced cytotoxicity”.

Consider `CCCCCCCC/C=C\CCCCCCCC(=O)OCC(C[N+](C)(C)C)OC(=O)CCCCCCC/C=C\CCCCCCCC` (centres unmarked) [DOTAP, 1,2-Bis(oleoyloxy)-3-(4'-trimethylammonio)propane], for which, in series [1], the Cytotoxicity entry was “no evidence of reduced cytotoxicity”. In series [3], the “Inhibition of transfection by serum” value is “inhibits transfection to some extent”.

In the case of `CCCCCCCC/C=C\CCCCCCCC(=O)OC[C@H](COC(=O)CCC[N+](C)(C)C)OC(=O)CCCCCCC/C=C\CCCCCCCC` [DOTB, 1,2-dioleoyl-3-(4'-trimethylammonio)butanoyl-sn-glycerol], the Cytotoxicity result in series [1] is reported as “no evidence of reduced cytotoxicity”.

With `CCCCCCCCCCCCCCCCCCN` [Stearylamine], the Cytotoxicity entry in series [1] was “great cytotoxicity”.
